pIC50: −log10 of the molar value.
What follows are compounds tested against T1, FLT3 (Homo sapiens, UniProt P36888) (assay: Inhibition of FLT3, 33P-ATP kinase assay with filter-binding detection). Details: 33P-ATP 10 uM, 2 hours at room temperature, filter-binding method.
T1 sequence (P36888 27-993): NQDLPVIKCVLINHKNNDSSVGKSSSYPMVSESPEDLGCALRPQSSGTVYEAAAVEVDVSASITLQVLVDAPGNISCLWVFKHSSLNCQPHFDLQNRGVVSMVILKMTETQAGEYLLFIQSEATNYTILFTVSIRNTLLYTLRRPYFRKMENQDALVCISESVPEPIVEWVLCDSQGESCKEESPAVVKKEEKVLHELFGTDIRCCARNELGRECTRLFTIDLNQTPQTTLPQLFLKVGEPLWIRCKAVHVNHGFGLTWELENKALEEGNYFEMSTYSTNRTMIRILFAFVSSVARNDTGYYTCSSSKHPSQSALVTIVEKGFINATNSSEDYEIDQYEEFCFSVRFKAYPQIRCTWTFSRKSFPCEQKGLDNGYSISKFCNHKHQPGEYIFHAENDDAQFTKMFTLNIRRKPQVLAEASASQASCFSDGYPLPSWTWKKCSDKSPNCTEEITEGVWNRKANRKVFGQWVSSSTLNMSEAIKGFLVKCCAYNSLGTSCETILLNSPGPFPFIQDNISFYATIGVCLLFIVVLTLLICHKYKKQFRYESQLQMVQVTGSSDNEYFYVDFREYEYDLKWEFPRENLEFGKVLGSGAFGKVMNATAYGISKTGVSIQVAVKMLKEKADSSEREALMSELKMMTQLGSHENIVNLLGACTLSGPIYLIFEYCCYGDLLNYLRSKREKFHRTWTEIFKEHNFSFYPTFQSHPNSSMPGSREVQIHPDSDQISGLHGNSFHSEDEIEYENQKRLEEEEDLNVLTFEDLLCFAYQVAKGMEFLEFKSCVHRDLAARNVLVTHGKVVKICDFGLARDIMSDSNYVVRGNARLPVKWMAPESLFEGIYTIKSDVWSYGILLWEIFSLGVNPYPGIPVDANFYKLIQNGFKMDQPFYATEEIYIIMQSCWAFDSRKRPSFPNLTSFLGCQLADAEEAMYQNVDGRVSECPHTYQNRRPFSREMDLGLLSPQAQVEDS
Assay type: biochemical
Experimental: Prepare indicated substrate in freshly prepared Base Reaction Buffer (20 mM Hepes (pH 7.5), 10 mM MgCl2, 1 mM EGTA, 0.02% Brij35, 0.02 mg/ml BSA, 0.1 mM Na3VO4, 2 mM DTT, 1% DMSO). Deliver any required cofactors to the substrate solution above. Deliver indicated kinase into the substrate solution and gently mix. The testing compounds in DMSO was added into the kinase reaction mixture by Acoustic technology (Echo550; nanoliter range) and incubated for 20 minutes at room temperature. Deliver 33P-ATP (specific activity […]) into the reaction mixture to initiate the reaction. Incubate kinase reaction for 2 hours at room temperature. Reactions are spotted onto P81 ion exchange paper. Detect kinase activity by filter-binding method.
Inhibition of FLT3 with 4-Quinolone Derivatives

| pIC50 | Compound |
| --- | --- |
| < 6.00 | O=c1c2cc(F)ccc2sc2c(NCCCN3CCCC3)nc3ccccc3c12 [compound 7753, 10-fluoro-6-(3-(pyrrolidin-1-yl)propylamino)-12H-thiochromeno[2,3-c]quinolin-12-one] |
| > 7.29 | NCCNc1nc2ccccc2c2c(=O)c3cc(F)ccc3sc12 [compound 7754, 6-(2-aminoethylamino)-10-fluoro-12H-thiochromeno[2,3-c]quinolin-12-one] |
| 6.00 to 6.30 | O=c1c2cc(F)ccc2sc2c(NCCN3CCCC3)nc3ccccc3c12 [compound 7755, 10-fluoro-6-(2-(pyrrolidin-1-yl)ethylamino)-12H-thiochromeno[2,3-c]quinolin-12-one] |
| < 6.00 | O=c1c2cc(F)ccc2sc2c(NCCN3CCOCC3)nc3ccccc3c12 [compound 7756, 10-fluoro-6-((2-morpholinoethyl)amino)-12H-thiochromeno[2,3-c]quinolin-12-one] |
| 6.30 to 6.70 | CCN1CCN(c2nc3ccccc3c3c(=O)c4cc(F)ccc4sc23)CC1 [compound 7757, 6-(4-ethylpiperazin-1-yl)-10-fluoro-12H-thiochromeno[2,3-c]quinolin-12-one] |
| < 6.00 | O=c1c2cc(F)ccc2sc2c(N3CCN(Cc4ccccc4)CC3)nc3ccccc3c12 [compound 7758, 6-(4-benzylpiperazin-1-yl)-10-fluoro-12H-thiochromeno[2,3-c]quinolin-12-one] |
| < 6.00 | O=c1c2cc(F)ccc2sc2c(Nc3ccccn3)nc3ccccc3c12 [compound 7760, 10-fluoro-6-(pyridin-2-ylamino)-12H-thiochromeno[2,3-c]quinolin-12-one] |
| < 6.00 | O=c1c2cc(F)ccc2sc2c(Nc3cccnc3)nc3ccccc3c12 [compound 7761, 10-fluoro-6-(pyridin-3-ylamino)-12H-thiochromeno[2,3-c]quinolin-12-one] |
| < 6.00 | O=c1c2cc(F)ccc2sc2c(Nc3ccncc3)nc3ccccc3c12 [compound 7763, 10-fluoro-6-(pyridin-4-ylamino)-12H-thiochromeno[2,3-c]quinolin-12-one] |
| < 6.00 | O=c1c2cc(F)ccc2sc2c(NCCNc3ccccn3)nc3ccccc3c12 [compound 7765, 10-fluoro-6-((2-(pyridin-2-ylamino)ethyl)amino)-12H-thiochromeno[2,3-c]quinolin-12-one] |
| < 6.00 | O=c1c2cc(F)ccc2sc2c(-n3ccnc3)nc3ccccc3c12 [compound 7766, 10-fluoro-6-(1H-imidazol-1-yl)-12H-thiochromeno[2,3-c]quinolin-12-one] |
| > 7.29 | NCCNc1nc2ccccc2c2c(=O)c3cc(Cl)ccc3sc12 [compound 7767, 6-(2-aminoethylamino)-10-cholor-12H-thiochromeno[2,3-c]quinolin-12-one] |
